Test results as given in US20150315241A1, “Antibiotic Peptides” (priority 2007, published 2015).
≈ marks a conversion by molar mass, not a printed value. Where two headings read alike, the source gives them in different places. Where a SMILES comes first, the peptide text is derived from it. Where no end group is shown, it is not given here. [ ]: non-standard residue; d: D form. Hyp = O=C(O)[C@@H]1C[C@@H](O)CN1; Orn = NCCC[C@H](N)C(=O)O

What was measured:
S. typhi S5 = type: cell-based, Salmonella typhi; conditions: S5, 20 h
How it was run: (§1)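 Bacteria grown overnight in nutrient broth at 37° C were diluted to 5×10^6 CFU/mL in 1% TSB and exposed to peptides serially halved from 125 μg/mL to 60 ng/mL final. After 20 h at 37° C, A595 gave the MIC, measured in triplicate.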

E. coli 45849 = test: Growth inhibition assay (MIC); type: cell-based, Escherichia coli
How it was run: as §1

[1] = test system: S. enterica subsp. Enterica serovar. typhi G10215 ATCC 700408; type: cell-based, Salmonella enterica; conditions: ATCC 700408, 20 h
How it was run: as §1

[2] = test system: K. Pneumonia K6, ATCC 700603; test: Growth inhibition assay (MIC); type: cell-based, Klebsiella pneumoniae; conditions: multidrug resistant strain; 1% TSB, 37° C., 20 hrs
How it was run: as §1

K. Pneumonia 123132 = test: Growth inhibition assay (MIC); type: cell-based, Klebsiella pneumoniae
How it was run: as §1

E. coli BL 21 AI = test: Growth inhibition assay (MIC); type: cell-based, Escherichia coli; conditions: 1% TSB, 37° C., 20 hrs
How it was run: (§2)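 Peptides were serially diluted two-fold in 1% TSB, giving final concentrations from 125 μg/mL down to 60 ng/mL, and mixed with overnight bacterial culture adjusted to 5×10^6 CFU/mL in 1% TSB. After 20 hrs at 37 °C, growth was read as absorbance at 595 nm, in triplicate, with sterile water as negative control.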

E. coli DC 2 = test: Growth inhibition assay (MIC); type: cell-based, Escherichia coli; conditions: 1% TSB, 37° C., 20 hrs
How it was run: as §2

K. pneumonia 681 = type: cell-based, Klebsiella pneumoniae
How it was run: as §2

B. subtilis 347 = type: cell-based, Bactillus subtillis
How it was run: as §2

E. coli 10233 = type: cell-based, Escherichia coli
How it was run: as §2

E. coli 1103 = type: cell-based, Escherichia coli
How it was run: as §2

E. coli D31 = type: cell-based, Escherichia coli; conditions: D31, 20 h
How it was run: as §1

M. luteus ATCC 10240 = type: cell-based, Micrococcus luteus
How it was run: as §2

[3] = test system: R. radiobatter ATCC 15955; test: Growth inhibition assay (MIC); type: cell-based, Rhizobium radiobacter
How it was run: as §1

Mycobacterium vaccae = type: cell-based
Experimental: The minimal inhibition concentrations (MIC) of the apidaecin-derived peptides and peptide-derivatives were determined by a growth inhibition assay using a serial peptide dilution in sterilized round-bottom 96-well plates (polystyrene, U-bottom, Greiner Bio-One GmbH) with a final volume of 100 μL per well. The bacteria, e.g., E. coli BL21 A1, were grown in nutrient broth (NB, Carl Roth GmbH+Co. KG, Karlsruhe, Germany) at 37° C. over night. To each well of the 96-well plate, 50 μL of the overnight culture adjusted to 5×10^6 CFU/mL in 1% TSB were added. Lyophilized peptides and peptidomimetics were dissolved in 1% TSB (tryptic soy broth) or water to give a final concentration of 250 μg/mL. Fifty μL of the peptide or peptidomimetics solution were added to the first well of a row on the plate and mixed. Fifty μL of the first well containing the peptide solution were transferred to the second well, mixed and again 50 μL transferred to the next well and so on. Thereby, a two-fold dilution series was obtained starting at 250 μg/mL in the first well down to 120 ng/mL in the 12th well of a row giving a final peptide or peptidomimetics concentration from 125 μg/mL (well 1) to 60 ng/mL (well 12). Plates were incubated at 37° C. for 20 hrs. The absorbance was measured at 595 nm using a TECAN micro plate spectrophotometer (Tecan, Germany). All peptides and peptidomimetics were measured in triplicates. Sterilized water was used as a negative control.
The bacteria strains were tested: • Eschericha coli 1103, 10233, BL 21 AI, DC 2, • Klebsiella pneumoniae 681, • Micrococcus luteus ATCC 10240, • Mycobacterium vaccae • Bactillus subtillis 347.

in vitro = in vitro ADME, mouse; conditions: 25% aqueous mouse serum, 37° C.; read-out: Half-life time
How it was run: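 Peptide or peptidomimetic (0.5 mg/mL aqueous stock) incubated in 25% pooled mouse serum at 37 °C, sampled at 0–6 h, in duplicate. Proteins precipitated with 15% TCA; supernatants neutralized and analyzed by RP-HPLC with 0.1% TFA. Degradation products identified by MALDI-TOF/TOF-MS.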

[4] = multidrug resistant strain, 1% TSB, 37° C., 20 hrs

Molecule	MIC S. typhi S5 (S. typhi S5) [mg/L]	MIC E. coli 45849 (E. coli 45849; [4]) [mg/L]	MIC S. enterica subsp. Enterica serovar. typhi G10215 ATCC 700408 [1] [mg/L]	MIC K. Pneumonia K6, ATCC 700603 [2] [mg/L]	MIC K. Pneumonia 123132 (K. Pneumonia 123132; [4]) [mg/L]	MIC E. coli BL 21 AI (E. coli BL 21 AI) [mg/L]	MIC E. coli DC 2 (E. coli DC 2) [mg/L]	MIC K. pneumonia 681 (K. pneumonia 681; 20 h) [mg/L]	MIC B. subtilis 347 (B. subtilis 347; 347, 20 h) [mg/L]	MIC E. coli 10233 (E. coli 10233; 10233, 20 h) [mg/L]	MIC E. coli 1103 (E. coli 1103; 1103, 20 h) [mg/L]	MIC E. coli D31 (E. coli D31) [mg/L]	MIC M. luteus ATCC 10240 (M. luteus ATCC 10240; ATCC 10240, 20 h) [mg/L]	MIC R. radiobatter ATCC 15955 [3, 4] [mg/L]	MIC Mycobacterium vaccae (Mycobacterium vaccae; 20 h) [mg/L]	also measured
CC[C@H](C)[C@H](NC(=O)[C@H](Cc1ccc(O)cc1)NC(=O)[C@@H](NC(=O)[C@@H]1CCCN1C(=O)[C@H](CCCNC(=N)N)NC(=O)[C@H](CC(N)=O)NC(=O)[C@H](CC(N)=O)NC(=O)[C@@H](N)CCCN)C(C)C)C(=O)N1CCC[C@H]1C(=O)N[C@@H](CCCNC(=N)N)C(=O)N1CCC[C@H]1C(=O)N[C@@H](CCCNC(=N)N)C(=O)N1CCC[C@H]1C(=O)N1CCC[C@H]1C(=O)N[C@@H](Cc1c[nH]cn1)C(=O)N1CCC[C@H]1C(=O)N[C@@H](CCCNC(=N)N)C(=O)N[C@@H](CC(C)C)C(N)=O [compound 38] (H-[Orn]NNRPVYIPRPRPPHPRL-NH2)	<0.5	0.5 (≈ 0.228 µM)	2 (≈ 0.912 µM)	4 (≈ 1.82 µM)	2 (≈ 0.912 µM)	1.95 (≈ 0.889 µM)	0.98 (≈ 0.447 µM)	1.95 (≈ 0.889 µM)	62.5 (≈ 28.5 µM)	1.95 (≈ 0.889 µM)	3.91 (≈ 1.78 µM)	2 (≈ 0.912 µM)	1.95 (≈ 0.889 µM)	1.3 (≈ 0.593 µM)	125 (≈ 57 µM)	
CC[C@H](C)[C@H](NC(=O)[C@H](Cc1ccc(O)cc1)NC(=O)[C@@H](NC(=O)[C@@H]1CCCN1C(=O)[C@H](CCCNC(=N)N)NC(=O)[C@H](CC(N)=O)NC(=O)[C@H](CC(N)=O)NC(=O)[C@H](CCCN)NC(C)=O)C(C)C)C(=O)N1CCC[C@H]1C(=O)N[C@@H](CCCNC(=N)N)C(=O)N1CCC[C@H]1C(=O)N[C@@H](CCCNC(=N)N)C(=O)N1CCC[C@H]1C(=O)N1CCC[C@H]1C(=O)N[C@@H](Cc1c[nH]cn1)C(=O)N1CCC[C@H]1C(=O)N[C@@H](CCCNC(=N)N)C(=O)N[C@@H](CC(C)C)C(N)=O [compound 39] (Ac-[Orn]NNRPVYIPRPRPPHPRL-NH2)	<0.5	1 (≈ 0.447 µM)	4 (≈ 1.79 µM)	16 (≈ 7.16 µM)	4 (≈ 1.79 µM)	1.95 (≈ 0.873 µM)	0.98 (≈ 0.439 µM)	3.9 (≈ 1.75 µM)	125 (≈ 55.9 µM)	1.95 (≈ 0.873 µM)	3.91 (≈ 1.75 µM)	4 (≈ 1.79 µM)	0.98 (≈ 0.439 µM)	0.33 (≈ 0.148 µM)	125 (≈ 55.9 µM)	
CC[C@H](C)[C@H](NC(=O)[C@H](Cc1ccc(O)cc1)NC(=O)[C@@H](NC(=O)[C@@H]1CCCN1C(=O)[C@H](CCCNC(=N)N)NC(=O)[C@H](CC(N)=O)NC(=O)[C@H](CC(N)=O)NC(=O)[C@H](CCCN)NC(C)=O)C(C)C)C(=O)N1CCC[C@H]1C(=O)N[C@@H](CCC(N)=O)C(=O)N1CCC[C@H]1C(=O)N[C@@H](CCCNC(=N)N)C(=O)N1CCC[C@H]1C(=O)N1CCC[C@H]1C(=O)N[C@@H](Cc1c[nH]cn1)C(=O)N1CCC[C@H]1C(=O)N[C@@H](CCCNC(=N)N)C(=O)N[C@@H](CC(C)C)C(N)=O [compound 7] (Ac-[Orn]NNRPVYIPQPRPPHPRL-NH2)	2 (≈ 0.906 µM)	1 (≈ 0.453 µM)	0.5 to 1	64 (≈ 29 µM)	16 (≈ 7.25 µM)	0.49 (≈ 0.222 µM)	3.9 (≈ 1.77 µM)	1.95 (≈ 0.884 µM)	>125		1.95 (≈ 0.884 µM)	4 to 8	3.91 (≈ 1.77 µM)	<0.16	125 (≈ 56.6 µM)	half-life at 0.061 mg/mL (in vitro): 15 min
GNNRPVYIPQPRPPHPRI [compound 1]			2	64		0.98	3.91	15.62	>125	1.95	1.95	64	31.25		>125	
CC[C@H](C)[C@H](NC(=O)[C@H](Cc1ccc(O)cc1)NC(=O)[C@@H](NC(=O)[C@@H]1CCCN1C(=O)[C@H](CCCNC(=N)N)NC(=O)[C@H](CC(N)=O)NC(=O)[C@H](CC(N)=O)NC(=O)CN)C(C)C)C(=O)N1CCC[C@H]1C(=O)N[C@@H](CCCN)C(=O)N1C[C@H](O)C[C@H]1C(=O)N[C@@H](CCCNC(=N)N)C(=O)N1CCC[C@H]1C(=O)N1CCC[C@H]1C(=O)N[C@@H](Cc1c[nH]cn1)C(=O)N1CCC[C@H]1C(=O)N[C@@H](CCCNC(=N)N)C(=O)N[C@@H](CC(C)C)C(N)=O [compound 11] (H-GNNRPVYIP[Orn][Hyp]RPPHPRL-NH2)	<0.5		<0.25	8 (≈ 3.79 µM)		0.49 (≈ 0.232 µM)	0.98 (≈ 0.465 µM)					8 (≈ 3.79 µM)				MIC E. coli 45849 (E. coli 45849; 45849, 20 h): 1 mg/L (≈ 0.474 µM); MIC K. Pneumonia 123132 (K. Pneumonia 123132; 20 h): 8 mg/L (≈ 3.79 µM); MIC K. pneumonia 681 (K. pneumonia 681; 1% TSB, 37° C., 20 hrs): 1.95 mg/L (≈ 0.924 µM); MIC B. subtilis 347 (B. subtilis 347; 1% TSB, 37° C., 20 hrs): 125 mg/L (≈ 59.3 µM); MIC E. coli 10233 (E. coli 10233; 1% TSB, 37° C., 20 hrs): 3.91 mg/L (≈ 1.85 µM); MIC E. coli 1103 (E. coli 1103; 1% TSB, 37° C., 20 hrs): 3.9 mg/L (≈ 1.85 µM); MIC M. luteus ATCC 10240 (M. luteus ATCC 10240; 1% TSB, 37° C., 20 hrs): 1.95 mg/L (≈ 0.924 µM); MIC R. radiobatter ATCC 15955 ([3]; ATCC 15955, 20 h): <0.16 mg/L; MIC Mycobacterium vaccae (Mycobacterium vaccae; 1% TSB, 37° C., 20 hrs): 125 mg/L (≈ 59.3 µM)
